In patent US8968750B2, “Malaria vaccines based on apicomplexan ferlins, ferlin-like proteins and other C2-domain containing proteins” (Ruprecht-Karls-Universität Heidelberg, priority 2009, dated 2015):

System: peripheral blood mononuclear cells (PBMC)
Assay: cultured IFNγ ELISpot over 10 days with PBMCs stimulated with Pf Ferlin epitopes
Assay type: cell-based, human
Experimental: Each epitope was tested both individually and in pools of epitopes, which is summarised in this figure. Freshly isolated PBMCs from the blood of malaria-exposed and non-exposed (naïve) individuals were stimulated with the Pf Ferlin epitopes. The secretion of IFNγ was analysed by ELISpot. Pf AMA1, a known malarial blood stage antigen, was used as a positive control (FIG. 12B).
In order to investigate the presence of Pf Ferlin-specific T cells in malaria-exposed individuals, T-cell responses to Pf Ferlin peptides (NLLDPLVVV (SEQ ID NO:4), YLYVNIHKI (SEQ ID NO:5), LLLEGNFYL (SEQ ID NO:6), KLIPVNYEL (SEQ ID NO:7), YLYEKQQEL (SEQ ID NO:8), ILIPSLPLI (SEQ ID NO:9)) were tested in semi-immune Kenyan adults in collaboration with Dr. Britta urban at the Kenyan Medical Research Institute-Wellcome Trust Research Programme (KEMRI). All adults are resident in Junju District, about 60 km north of Mombasa at the Kenyan coast. The area has two high transmission seasons but low-level transmission occurs all year round (infectious bites per year:23-53) (Mwangi et al., 2005).
In order to determine the production of antigen-specific IFNγ by activated peripheral blood mononuclear cells (PBMC), cultured ELISpot analysis was carried out over a period of 10 days in malaria-exposed adults and malaria-naïve individuals. […] Furthermore, when studying the production of antigen-specific IFN-γ by activated peripheral blood mononuclear cells (PBMC) in 12 malaria-exposed adults and 5 malaria-naive individuals, Pf Ferlin-specific T cells were detected to at least one peptide in 4 out of 12 and to more than one peptide in 3 out of 12 malaria-exposed adults (Table 2).

| Sequence | INFγ response to individual peptide (responder) (Patient Ad) | INFγ response to individual peptide (responder) (Patient Fr) | INFγ response to individual peptide (responder) (Patient JA006) | INFγ response to individual peptide (responder) (Patient JA007) | INFγ response to individual peptide (responder) (Patient JA029) | INFγ response to individual peptide (responder) (Patient JA030) | INFγ response to individual peptide (responder) (Patient JA046) | INFγ response to individual peptide (responder) (Patient JA047) | INFγ response to individual peptide (responder) (Patient JA066) | INFγ response to individual peptide (responder) (Patient JA067) | INFγ response to individual peptide (responder) (Patient JA086) | INFγ response to individual peptide (responder) (Patient JA087) |
| --- | --- | --- | --- | --- | --- | --- | --- | --- | --- | --- | --- | --- |
| KLIPVNYEL (listed as Plasmodium falciparum) [Epitope 4] | no (An INFγ response above SFC 500 identified the patient as a responder.) | no (An INFγ response above SFC 500 identified the patient as a responder.) | no (An INFγ response above SFC 500 identified the patient as a responder.) | no (An INFγ response above SFC 500 identified the patient as a responder.) | no (An INFγ response above SFC 500 identified the patient as a responder.) | yes (An INFγ response above SFC 500 identified the patient as a responder.) | no (An INFγ response above SFC 500 identified the patient as a responder.) | no (An INFγ response above SFC 500 identified the patient as a responder.) | no (An INFγ response above SFC 500 identified the patient as a responder.) | no (An INFγ response above SFC 500 identified the patient as a responder.) | yes (An INFγ response above SFC 500 identified the patient as a responder.) |  |
| ILIPSLPLI (listed as Plasmodium falciparum) [Epitope 6] | no (An INFγ response above SFC 500 identified the patient as a responder.) | no (An INFγ response above SFC 500 identified the patient as a responder.) |  |  | no (An INFγ response above SFC 500 identified the patient as a responder.) | yes (An INFγ response above SFC 500 identified the patient as a responder.) | no (An INFγ response above SFC 500 identified the patient as a responder.) | no (An INFγ response above SFC 500 identified the patient as a responder.) | no (An INFγ response above SFC 500 identified the patient as a responder.) | no (An INFγ response above SFC 500 identified the patient as a responder.) | no (An INFγ response above SFC 500 identified the patient as a responder.) |  |
| LLLEGNFYL (listed as Plasmodium falciparum) [Epitope 3] | no (An INFγ response above SFC 500 identified the patient as a responder.) | no (An INFγ response above SFC 500 identified the patient as a responder.) | no (An INFγ response above SFC 500 identified the patient as a responder.) |  | yes (An INFγ response above SFC 500 identified the patient as a responder.) | no (An INFγ response above SFC 500 identified the patient as a responder.) | no (An INFγ response above SFC 500 identified the patient as a responder.) | no (An INFγ response above SFC 500 identified the patient as a responder.) | no (An INFγ response above SFC 500 identified the patient as a responder.) | no (An INFγ response above SFC 500 identified the patient as a responder.) | yes (An INFγ response above SFC 500 identified the patient as a responder.) |  |
| YLYEKQQEL (listed as Plasmodium falciparum) [Epitope 5] | no (An INFγ response above SFC 500 identified the patient as a responder.) | no (An INFγ response above SFC 500 identified the patient as a responder.) | no (An INFγ response above SFC 500 identified the patient as a responder.) |  | no (An INFγ response above SFC 500 identified the patient as a responder.) | yes (An INFγ response above SFC 500 identified the patient as a responder.) | no (An INFγ response above SFC 500 identified the patient as a responder.) | no (An INFγ response above SFC 500 identified the patient as a responder.) |  |  | no (An INFγ response above SFC 500 identified the patient as a responder.) |  |
| NLLDPLVVV (listed as Plasmodium falciparum) [Epitope 1] | yes (An INFγ response above SFC 500 identified the patient as a responder.) | no (An INFγ response above SFC 500 identified the patient as a responder.) | no (An INFγ response above SFC 500 identified the patient as a responder.) | no (An INFγ response above SFC 500 identified the patient as a responder.) | yes (An INFγ response above SFC 500 identified the patient as a responder.) | no (An INFγ response above SFC 500 identified the patient as a responder.) | no (An INFγ response above SFC 500 identified the patient as a responder.) | no (An INFγ response above SFC 500 identified the patient as a responder.) | no (An INFγ response above SFC 500 identified the patient as a responder.) | no (An INFγ response above SFC 500 identified the patient as a responder.) | no (An INFγ response above SFC 500 identified the patient as a responder.) | no (An INFγ response above SFC 500 identified the patient as a responder.) |
| YLYVNIHKI (listed as Plasmodium falciparum) [Epitope 2] | no (An INFγ response above SFC 500 identified the patient as a responder.) | no (An INFγ response above SFC 500 identified the patient as a responder.) | no (An INFγ response above SFC 500 identified the patient as a responder.) |  | yes (An INFγ response above SFC 500 identified the patient as a responder.) | no (An INFγ response above SFC 500 identified the patient as a responder.) | no (An INFγ response above SFC 500 identified the patient as a responder.) | no (An INFγ response above SFC 500 identified the patient as a responder.) | no (An INFγ response above SFC 500 identified the patient as a responder.) | no (An INFγ response above SFC 500 identified the patient as a responder.) | no (An INFγ response above SFC 500 identified the patient as a responder.) |  |
